Reference: US11731943B2, “Therapeutic compounds, compositions and methods of use thereof” (priority 2016, dated 2023)
Where two headings read alike, the source gives them in different places.

Experiments:
[1] = target: isolated recombinant JAK2 kinase domain (Homo sapiens (Human), UniProt O60674); assay: JAK2 enzyme assay (Caliper LabChip, Ki); type: biochemical
Method in brief: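 Caliper LabChip readout of phosphorylated product as a fraction of total substrate, a fluorescently N-terminally labelled JAK3-derived peptide. Isolated human JAK kinase domains were incubated 30 min at 22 °C before EDTA quench (50 mM final).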

[2] = test system: JAK1-dependent STAT6 phosphorylation downstream of IL-13 stimulation in BEAS-2B human bronchial epithelial cells; assay: JAK1 pathway assay in BEAS-2B cells (IL-13-pSTAT6, MSD); type: cell-based; conditions: Homo sapiens, BEAS-2B
[3] = target: isolated recombinant JAK1 kinase domain (Homo sapiens (Human), UniProt P23458); assay: JAK1 enzyme assay (Caliper LabChip, Ki); type: biochemical
Method in brief: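 Ki derived via Morrison tight-binding model, ATP-competitive correction applied. Read-out: product/total ratio of a 5-carboxyfluorescein-tagged JAK3 peptide separated on Caliper LabChip after phosphorylation by isolated human JAK1 kinase domain (22 °C, 30 min; EDTA quench, 50 mM final).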

[4] = BEAS-2B cells, IL-13 stimulation, read-out: IL-13 p-STAT6 BEAS-2B IC50
[5] = read-out: IL-13 p-STAT6 BEAS-2B IC50, BEAS-2B cells, IL-13 stimulation

Sequence of isolated recombinant JAK2 kinase domain (O60674 849-1124): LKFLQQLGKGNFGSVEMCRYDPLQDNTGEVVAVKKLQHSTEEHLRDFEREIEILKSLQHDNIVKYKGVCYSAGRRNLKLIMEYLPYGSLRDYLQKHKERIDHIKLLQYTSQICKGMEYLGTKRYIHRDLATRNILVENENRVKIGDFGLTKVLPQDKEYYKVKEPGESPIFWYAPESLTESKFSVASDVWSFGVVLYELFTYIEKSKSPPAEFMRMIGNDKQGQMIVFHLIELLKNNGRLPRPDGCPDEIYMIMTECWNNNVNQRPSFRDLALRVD
Sequence of isolated recombinant JAK1 kinase domain (P23458 875-1153): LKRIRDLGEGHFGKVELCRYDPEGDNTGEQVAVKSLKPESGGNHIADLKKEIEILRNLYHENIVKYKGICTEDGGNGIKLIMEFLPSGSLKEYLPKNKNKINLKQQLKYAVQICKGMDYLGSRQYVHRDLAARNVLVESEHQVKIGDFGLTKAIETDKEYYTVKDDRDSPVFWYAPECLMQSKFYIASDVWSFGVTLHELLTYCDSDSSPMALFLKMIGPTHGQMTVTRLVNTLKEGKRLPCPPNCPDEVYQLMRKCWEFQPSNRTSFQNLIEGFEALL

COCc1cccc(-c2ccc(CN3CCC(CC#N)(n4cc(C(N)=O)c(NC(=O)C5CC5)n4)CC3)cc2)c1 [Example 157, 1-[4-(cyanomethyl)-1-[[4-[3-(methoxymethyl)phenyl]phenyl]methyl]-4-piperidyl]-3-(cyclopropanecarbonylamino) pyrazole-4-carboxamide]
Ki [1]: 13.7 nM
IC50 [2, 4]: 104 nM
Ki ([3]; read-out: JAK1 Ki): 1.6 nM

Cc1cc(CN2CCC(CC#N)(n3cc(C(N)=O)c(NC(=O)C4CC4)n3)CC2)ccc1-c1ccccc1 [Example 160, 1-[4-(cyanomethyl)-1-[(3-methyl-4-phenyl-phenyl)methyl]-4-piperidyl]-3-(cyclopropanecarbonylamino) pyrazole-4-carboxamide]
Ki [1]: 12 nM
IC50 [2, 4]: 186 nM
Ki ([3]; read-out: JAK1 Ki): 3.2 nM

N#CCC1(n2cc(C(N)=O)c(NC(=O)C3CC3)n2)CCN(Cc2ccc(-c3ccccc3)c(C#N)c2)CC1 [Example 161, 1-[4-(cyanomethyl)-1-[(3-cyano-4-phenyl-phenyl)methyl]-4-piperidyl]-3-(cyclopropanecarbonylamino) pyrazole-4-carboxamide]
Ki [1]: 35.3 nM
IC50 [2, 4]: 1010 nM
Ki ([3]; read-out: JAK1 Ki): 5.5 nM

COc1cc(CN2CCC(CC#N)(n3cc(C(N)=O)c(NC(=O)C4CC4)n3)CC2)ccc1-c1ccccc1 [Example 162, 1-[4-(cyanomethyl)-1-[(3-methoxy-4-phenyl-phenyl)methyl]-4-piperidyl]-3-(cyclopropanecarbonylamino) pyrazole-4-carboxamide]
Ki [1]: 10.6 nM
IC50 [2, 4]: 293 nM
Ki ([3]; read-out: JAK1 Ki): 3.1 nM

N#CCC1(n2cc(C(N)=O)c(NC(=O)C3CC3)n2)CCN(Cc2ccc(-c3ccccc3)c(Cl)c2)CC1 [Example 163, 1-[1-[(3-chloro-4-phenyl-phenyl)methyl]-4-(cyanomethyl)-4-piperidyl]-3-(cyclopropanecarbonylamino) pyrazole-4-carboxamide]
Ki [1]: 18.5 nM
IC50 [2, 4]: 103 nM
Ki ([3]; read-out: JAK1 Ki): 2.1 nM

N#CC[C@]1(n2cc(C(N)=O)c(NC(=O)C3CC3)n2)CCN(Cc2ccccc2)C[C@@H]1F [Example 164, 1-[1-benzyl-4-(cyanomethyl)-3-fluoro-4-piperidyl]-3-(cyclopropanecarbonylamino) pyrazole-4-carboxamide]
Ki [1]: 9 nM
IC50 [2, 4]: 275 nM
Ki ([3]; read-out: JAK1 Ki): 2.7 nM

N#CCC1(n2cc(C(N)=O)c(NC(=O)C3CC3)n2)CCN(Cc2ccc(-c3ccc(C(F)(F)F)cc3)nc2)CC1 [Example 166, 1-[4-(cyanomethyl)-1-[[6-[4-(trifluoromethyl)phenyl]-3-pyridyl]methyl]-4-piperidyl]-3-(cyclopropanecarbonylamino) pyrazole-4-carboxamide]
Ki [1]: 80 nM
IC50 [2, 4]: 68 nM
Ki ([3]; read-out: JAK1 Ki): 2.2 nM

N#CCC1(n2cc(C(N)=O)c(NC(=O)C3CC3)n2)CCN(C(=O)OCC(F)(F)F)CC1 [Example 167, 2,2,2-trifluoroethyl 4-[4-carbamoyl-3-(cyclopropanecarbonylamino)pyrazol-1-yl]-4-(cyanomethyl)piperidine-1-carboxylate]
Ki [1]: 28.7 nM
IC50 [2, 4]: 833 nM
Ki ([3]; read-out: JAK1 Ki): 2.3 nM

N#CCC1(n2cc(C(N)=O)c(NC(=O)C3CC3)n2)CCN(C(=O)CCC(F)(F)F)CC1 [Example 169, 1-[4-(cyanomethyl)-1-(4,4,4-trifluorobutanoyl)-4-piperidyl]-3-(cyclopropanecarbonylamino) pyrazole-4-carboxamide]
Ki [1]: 48.3 nM
IC50 [2, 4]: > 1000 nM
Ki ([3]; read-out: JAK1 Ki): 3.7 nM

N#CC[C@]1(n2cc(C(N)=O)c(NC(=O)C3CC3)n2)CC[C@@H](N2CC(F)(F)C2)CC1 [Example 178, 1-[1-(cyanomethyl)-4-(3,3-difluoroazetidin-1-yl)cyclohexyl]-3-(cyclopropanecarbonylamino) pyrazole-4-carboxamide]
Ki [1]: 18.4 nM
IC50 [2, 5]: 167 nM
Ki [3]: 4.7 nM

N#CC[C@]1(n2cc(C(N)=O)c(NC(=O)C3CC3)n2)CC[C@@H](N2CC(F)C2)CC1 [Example 180, 1-[1-(cyanomethyl)-4-(3-fluoroazetidin-1-yl)cyclohexyl]-3-(cyclopropanecarbonylamino) pyrazole-4-carboxamide]
Ki [1]: 17.3 nM
IC50 [2, 5]: 168 nM
Ki [3]: 5.5 nM

CC(OC(=O)N1CCC(CC#N)(n2cc(C(N)=O)c(NC(=O)C3CC3)n2)CC1)C1CC1 (stereo not drawn) [Example 182, 1-cyclopropylethyl 4-[4-carbamoyl-3-(cyclopropanecarbonylamino)pyrazol-1-yl]-4-(cyanomethyl)piperidine-1-carboxylate]
Ki [1]: 50.7 nM
IC50 [2, 4]: 675 nM
Ki ([3]; read-out: JAK1 Ki): 4.7 nM

N#CCC1(n2cc(C(N)=O)c(NC(=O)C3CC3)n2)CCN(Cc2ccccc2F)CC1 [Example 184, 1-[4-(cyanomethyl)-1-[(2-fluorophenyl)methyl]-4-piperidyl]-3-(cyclopropanecarbonylamino) pyrazole-4-carboxamide]
Ki [1]: 160 nM
IC50 [2, 4]: 177 nM
Ki ([3]; read-out: JAK1 Ki): 90.4 nM

COC(=O)Nc1nn(C2(CC#N)CCN(Cc3ccc(-c4ccccc4)c(O)c3)CC2)cc1C(N)=O [Example 186, Methyl (4-carbamoyl-1-(4-(cyanomethyl)-1-((2-hydroxy-[1,1′-biphenyl]-4-yl) Methyl)piperidin-4-yl)-1H-pyrazol-3-yl)carbamate]
Ki [1]: 1 nM
IC50 [2, 4]: 68 nM
Ki ([3]; read-out: JAK1 Ki): 0.24 nM

CCOC(=O)Nc1nn(C2(CC#N)CCN(Cc3ccc(-c4ccccc4)c(O)c3)CC2)cc1C(N)=O [Example 187, ethyl N-[4-carbamoyl-1-[4-(cyanomethyl)-1-[(3-hydroxy-4-phenyl-phenyl)methyl]-4-piperidyl]pyrazol-3-yl]carbamate]
Ki [1]: 3.1 nM
IC50 [2, 4]: 74 nM
Ki ([3]; read-out: JAK1 Ki): 0.52 nM

N#CCC1(n2cc(C(N)=O)c(NC(=O)C3CC3)n2)CCN(Cc2ccc(-c3ccccc3)nc2F)CC1 [Example 188, 1-[4-(cyanomethyl)-1-[(2-fluoro-6-phenyl-3-pyridyl)methyl]-4-piperidyl]-3-(cyclopropanecarbonylamino) pyrazole-4-carboxamide]
Ki [1]: 1.4 nM
IC50 [2, 4]: 34 nM
Ki ([3]; read-out: JAK1 Ki): 0.6 nM

CCc1ccc(-c2ccc(CN3CCC(CC#N)(n4cc(C(N)=O)c(NC(=O)C5CC5)n4)CC3)cc2O)cc1 [Example 189, 1-[4-(cyanomethyl)-1-[[4-(4-ethylphenyl)-3-hydroxy-phenyl]methyl]-4-piperidyl]-3-(cyclopropanecarbonylamino) pyrazole-4-carboxamide]
Ki [1]: 1.3 nM
IC50 [2, 4]: 38 nM
Ki ([3]; read-out: JAK1 Ki): 0.33 nM

N#CCC1(n2cc(C(N)=O)c(NC(=O)C3CC3)n2)CCN(Cc2ccc(-c3ccn(CC(F)(F)F)n3)c(F)c2)CC1 [Example 190, 1-[4-(cyanomethyl)-1-[[3-fluoro-4-[1-(2,2,2-trifluoroethyl)pyrazol-3-yl]phenyl]methyl]-4-piperidyl]-3-(cyclopropanecarbonylamino) pyrazole-4-carboxamide]
Ki [1]: 11 nM
IC50 [2, 4]: 93 nM
Ki ([3]; read-out: JAK1 Ki): 1.1 nM

N#CCC1(n2cc(C(N)=O)c(NC(=O)C3CC3)n2)CCN(Cc2cc(O)c(-c3ccccc3)cc2F)CC1 [Example 191, 1-[4-(cyanomethyl)-1-[(2-fluoro-5-hydroxy-4-phenyl-phenyl)methyl]-4-piperidyl]-3-(cyclopropanecarbonylamino) pyrazole-4-carboxamide]
Ki [1]: 0.32 nM
IC50 [2, 4]: 82 nM
Ki ([3]; read-out: JAK1 Ki): 0.2 nM

N#CCC1(n2cc(C(N)=O)c(NC(=O)C3CC3C#N)n2)CCN(Cc2ccc(-c3ccccc3)cc2)CC1F (stereo not drawn) [Example 192, 3-[(2-cyanocyclopropanecarbonyl)amino]-1-[4-(cyanomethyl)-3-fluoro-1-[(4-phenylphenyl)methyl]-4-piperidyl]pyrazole-4-carboxamide]
Ki [1]: 1.2 nM
IC50 [2, 4]: 28 nM
Ki ([3]; read-out: JAK1 Ki): 0.35 nM

N#CCC1(n2cc(C(N)=O)c(NC(=O)C3CC3)n2)CCN(Cc2ccc(-c3ccccc3)nc2)CC1F (stereo not drawn) [Example 193, 1-[4-(cyanomethyl)-3-fluoro-1-[(6-phenyl-3-pyridyl)methyl]-4-piperidyl]-3-(cyclopropanecarbonylamino) pyrazole-4-carboxamide]
Ki [1]: 0.26 nM
IC50 [2, 4]: 48 nM
Ki ([3]; read-out: JAK1 Ki): 0.33 nM

Cc1c(CN2CCC(CC#N)(n3cc(C(N)=O)c(NC(=O)C4CC4)n3)CC2)ccc(-c2ccccc2)c1O [Example 194, 1-[4-(cyanomethyl)-1-[(3-hydroxy-2-methyl-4-phenyl-phenyl)methyl]-4-piperidyl]-3-(cyclopropanecarbonylamino) pyrazole-4-carboxamide]
Ki [1]: 2.2 nM
IC50 [2, 4]: 50 nM
Ki ([3]; read-out: JAK1 Ki): 0.63 nM

COC(=O)Nc1nn(C2(CC#N)CCN(Cc3ccc(-c4ccccc4)c(O)c3)CC2F)cc1C(N)=O (stereo not drawn) [Example 195, methyl N-[4-carbamoyl-1-[4-(cyanomethyl)-3-fluoro-1-[(3-hydroxy-4-phenyl-phenyl)methyl]-4-piperidyl]pyrazol-3-yl]carbamate]
Ki [1]: 0.15 nM
IC50 [2, 4]: 15 nM
Ki ([3]; read-out: JAK1 Ki): 0.11 nM

COC(=O)Nc1nn(C2(CC#N)CCN(Cc3ccc(-c4ccccc4)nc3)CC2F)cc1C(N)=O (stereo not drawn) [Example 196, methyl N-[4-carbamoyl-1-[4-(cyanomethyl)-3-fluoro-1-[(6-phenyl-3-pyridyl)methyl]-4-piperidyl]pyrazol-3-yl]carbamate]
Ki [1]: 0.27 nM
IC50 [2, 4]: 30 nM
Ki ([3]; read-out: JAK1 Ki): 0.26 nM

COC(=O)Nc1nn(C2(CC#N)CCN(Cc3ccc(-n4nccn4)cc3)CC2)cc1C(N)=O [Example 197, methyl N-[4-carbamoyl-1-[4-(cyanomethyl)-1-[[4-(triazol-2-yl)phenyl]methyl]-4-piperidyl]pyrazol-3-yl]carbamate]
Ki [1]: 22 nM
IC50 [2, 4]: 65 nM
Ki ([3]; read-out: JAK1 Ki): 1.2 nM
